Measured values taken from patent publication US20230059898A1 (priority 2020, published 2023).
Structures can show the parent of a compound that is named as a salt.

Test system: biocontrol strain ST15
Assay type: cell-based, Bacillus altitudinis
Further: key: +: not sensitive; −: sensitive.

| SMILES | chemical sensitivity of strain ST15 |
| --- | --- |
| CO[C@H]1C[C@H](O[C@H]2[C@H](C)[C@@H](O[C@@H]3O[C@H](C)C[C@H](N(C)C)[C@H]3OC(C)=O)[C@@H](C)C[C@@]3(CO3)C(=O)[C@H](C)[C@@H](OC(C)=O)[C@@H](C)[C@@H](C)OC(=O)[C@@H]2C)O[C@@H](C)[C@@H]1OC(C)=O [Troleandomycin] | − |
| N=C(N)N [Guanidine hydrochloride] | + |
| CCCCCCCCCCCCCCOS(=O)(=O)[O-].[Na+] [Sodium tetradecyl sulfate] | − |
| CO[C@H]1/C=C/O[C@@]2(C)Oc3c(C)c([O-])c4c(O)c(cc(O)c4c3C2=O)NC(=O)/C(C)=C\C=C\[C@H](C)[C@H](O)[C@@H](C)[C@@H](O)[C@@H](C)[C@H](OC(C)=O)[C@@H]1C.[Na+] [Rifamycin SV] | − |
| c1ccc(-c2nn(-c3ccccc3)[n+](-c3cccc4ccccc34)n2)cc1 [Tetrazolium violet] | − |
| CN[C@H](CC(C)C)C(=O)N[C@H]1C(=O)N[C@@H](CC(N)=O)C(=O)N[C@H]2C(=O)N[C@H]3C(=O)N[C@H](C(=O)N[C@H](C(=O)O)c4cc(O)cc(O)c4-c4cc3ccc4O)[C@H](O)c3ccc(c(Cl)c3)Oc3cc2cc(c3O[C@@H]2O[C@H](CO)[C@@H](O)[C@H](O)[C@H]2O[C@H]2C[C@](C)(N)[C@H](O)[C@H](C)O2)Oc2ccc(cc2Cl)[C@H]1O [Vancomycin] | − |
| COc1cc(-c2ccc(-n3nc(-c4ccccc4)n[n+]3-c3ccccc3)c(OC)c2)ccc1-n1nc(-c2ccccc2)n[n+]1-c1ccccc1.[Cl-].[Cl-] [Tetrazolium blue] | − |
| CCC[C@@H]1C[C@@H](C(=O)N[C@@H]([C@H]2O[C@H](SC)[C@H](O)[C@@H](O)[C@H]2O)[C@@H](C)O)N(C)C1 [Lincomycin] | + |
| C[C@H]1[C@H](NC(=O)/C(=N\OC(C)(C)C(=O)O)c2csc(N)n2)C(=O)N1S(=O)(=O)O [Aztreonam] | + |
| CC(O)C(=O)[O-].[Na+] (centres unmarked) [1% sodium lactate, sodium lactate] | + |
| [Cl-].[Na+] [1% NaCl, NaCl] | + |
| CCCC(=O)[O-].[Na+] [Sodium butyrate] | + |
| O=[Te]([O-])[O-].[K+].[K+] [Dipotassium trioxotellurate] | + |
| N[C@H](CO)C(=O)O [D-serine] | − |
| CC(=O)O[C@H]1C[C@@]2(C)[C@@H](C[C@@H](O)[C@H]3[C@@]4(C)CC[C@@H](O)[C@@H](C)[C@@H]4CC[C@@]32C)/C1=C(\CCC=C(C)C)C(=O)O [Fusidic acid] | − |
| CCn1cc(C(=O)O)c(=O)c2ccc(C)nc21 [Nalidixic acid] | + |
| [Cl-].[Li+] [Lithium chloride] | + |
